Assay results from patent publication US20090105270A1, “Kinase inhibition and anticancer therapy” (priority 2007, published 2009).

Experiments:
CDK2/cyclinA(h) = molecular target: T1, CDK2/cyclinA(h) (Homo sapiens, UniProt P24941); assay: Upstate kinase activity inhibition assay CDK2/cyclinA(h); assay type: biochemical; conditions: 0.2 μM Compound E
T1 construct: purchased Upstate (KinaseProfiler service)

cKit(D816V)(h) = molecular target: T2, cKit(D816V)(h) (Homo sapiens, UniProt P10721, D816V); assay: Upstate kinase activity inhibition assay cKit(D816V)(h); assay type: biochemical; conditions: 40 min, read-out: percentage of enzyme activity that remains
T2 construct: purchased Upstate (KinaseProfiler service)

cSRC(h) = cSRC(h) (Homo sapiens, UniProt P12931); assay: Upstate kinase activity inhibition assay cSRC(h); assay type: biochemical; conditions: 40 min; read-out: percentage of enzyme activity that remains
DYRK2(h) = molecular target: T3, DYRK2(h) (Homo sapiens, UniProt Q92630); assay: Upstate kinase activity inhibition assay DYRK2(h); assay type: biochemical; conditions: 40 min; read-out: percentage of enzyme activity that remains
T3 construct: purchased Upstate (KinaseProfiler service)

EphA7(h) = molecular target: T4, EphA7(h) (Homo sapiens, UniProt Q15375); assay: Upstate kinase activity inhibition assay EphA7(h); assay type: biochemical; conditions: 40 min; read-out: percentage of enzyme activity that remains
T4 construct: purchased Upstate (KinaseProfiler service)

EphA8(h) = molecular target: T5, EphA8(h) (Homo sapiens, UniProt P29322); assay: Upstate kinase activity inhibition assay EphA8(h); assay type: biochemical; conditions: 40 min; read-out: percentage of enzyme activity that remains
T5 construct: purchased Upstate (KinaseProfiler service)

EphB4(h) = molecular target: T6, EphB4(h) (Homo sapiens, UniProt P54760); assay: Upstate kinase activity inhibition assay EphB4(h); assay type: biochemical; conditions: 40 min; read-out: percentage of enzyme activity that remains
T6 construct: purchased Upstate (KinaseProfiler service)

Fyn(h) = molecular target: T7, Fyn(h) (Homo sapiens, UniProt P06241); assay: Upstate kinase activity inhibition assay Fyn(h); assay type: biochemical; conditions: 40 min; read-out: percentage of enzyme activity that remains
T7 construct: purchased Upstate (KinaseProfiler service)

JNK3(h) = molecular target: T8, JNK3(h) (Homo sapiens, UniProt P53779); assay: Upstate kinase activity inhibition assay JNK3(h); assay type: biochemical
T8 construct: purchased Upstate (KinaseProfiler service)

Pim-1(h) = Pim-1(h) (Homo sapiens, UniProt P11309); assay: Upstate kinase activity inhibition assay Pim-1(h); assay type: biochemical; conditions: 40 min; read-out: percentage of enzyme activity that remains
PKCε(h) = molecular target: T9, PKCε(h) (Homo sapiens, UniProt Q02156); assay: Upstate kinase activity inhibition assay PKCε(h); assay type: biochemical; conditions: 40 min; read-out: percentage of enzyme activity that remains
T9 construct: purchased Upstate (KinaseProfiler service)

PTK5(h) = molecular target: T10, PTK5(h) (Homo sapiens, UniProt P42685); assay: Upstate kinase activity inhibition assay PTK5(h); assay type: biochemical; conditions: 40 min; read-out: percentage of enzyme activity that remains
T10 construct: purchased Upstate (KinaseProfiler service)

Pyk2(h) = molecular target: T11, Pyk2(h) (Homo sapiens, UniProt Q14289); assay: Upstate kinase activity inhibition assay Pyk2(h); assay type: biochemical; conditions: 40 min; read-out: percentage of enzyme activity that remains
T11 construct: purchased Upstate (KinaseProfiler service)

Fgr(h) = Fgr(h) (Homo sapiens, UniProt P09769); assay: Upstate kinase activity inhibition assay Fgr(h); conditions: 40 min, read-out: percentage of enzyme activity that remains
ITK(h) = ITK(h) (Homo sapiens, UniProt Q08881); assay: Upstate kinase activity inhibition assay ITK(h); conditions: 4 μM Compound E
KDR(h) = KDR(h) (Homo sapiens, UniProt P35968); assay: Upstate kinase activity inhibition assay KDR(h); conditions: 40 min, read-out: percentage of enzyme activity that remains
SIK(h) = SIK(h) (Homo sapiens, UniProt P57059); assay: Upstate kinase activity inhibition assay SIK(h)
MST2(h) = MST2(h) (Homo sapiens, UniProt Q13188); assay: Upstate kinase activity inhibition assay MST2(h); conditions: 40 min, read-out: percentage of enzyme activity that remains
MST3(h) = MST3(h) (Homo sapiens, UniProt Q9Y6E0); assay: Upstate kinase activity inhibition assay MST3(h)
TAK1(h) = TAK1(h) (Homo sapiens, UniProt O43318); assay: Upstate kinase activity inhibition assay TAK1(h); conditions: 40 min, read-out: percentage of enzyme activity that remains
DAPK1(h) = DAPK1(h) (Homo sapiens, UniProt P53355); assay: Upstate kinase activity inhibition assay DAPK1(h); conditions: 40 min, read-out: percentage of enzyme activity that remains
EphA2(h) = EphA2(h) (Homo sapiens, UniProt P29317); assay: Upstate kinase activity inhibition assay EphA2(h); conditions: 40 min, read-out: percentage of enzyme activity that remains
EphB2(h) = EphB2(h) (Homo sapiens, UniProt P29323); assay: Upstate kinase activity inhibition assay EphB2(h)
ErbB4(h) = ErbB4(h) (Homo sapiens, UniProt Q15303); assay: Upstate kinase activity inhibition assay ErbB4(h); conditions: 40 min, read-out: percentage of enzyme activity that remains
HIPK1(h) = HIPK1(h) (Homo sapiens, UniProt Q86Z02); assay: Upstate kinase activity inhibition assay HIPK1(h); conditions: 40 min, read-out: percentage of enzyme activity that remains
HIPK2(h) = HIPK2(h) (Homo sapiens, UniProt Q9H2X6); assay: Upstate kinase activity inhibition assay HIPK2(h); conditions: 40 min, read-out: percentage of enzyme activity that remains
MAPK1(h) = MAPK1(h) (Homo sapiens, UniProt P27361); assay: Upstate kinase activity inhibition assay MAPK1(h); conditions: 40 min, read-out: percentage of enzyme activity that remains
SRPK2(h) = SRPK2(h) (Homo sapiens, UniProt P78362); assay: Upstate kinase activity inhibition assay SRPK2(h); conditions: 40 min, read-out: percentage of enzyme activity that remains
IGF-1R(h) = IGF-1R(h) (Homo sapiens, UniProt P08069); assay: Upstate kinase activity inhibition assay IGF-1R(h); conditions: 40 min, read-out: percentage of enzyme activity that remains
PDGFRα(h) = PDGFRα(h) (Homo sapiens, UniProt P16234); assay: Upstate kinase activity inhibition assay PDGFRα(h); conditions: 40 min, read-out: percentage of enzyme activity that remains

Sequence of ErbB4(h) (Q15303 26-1308): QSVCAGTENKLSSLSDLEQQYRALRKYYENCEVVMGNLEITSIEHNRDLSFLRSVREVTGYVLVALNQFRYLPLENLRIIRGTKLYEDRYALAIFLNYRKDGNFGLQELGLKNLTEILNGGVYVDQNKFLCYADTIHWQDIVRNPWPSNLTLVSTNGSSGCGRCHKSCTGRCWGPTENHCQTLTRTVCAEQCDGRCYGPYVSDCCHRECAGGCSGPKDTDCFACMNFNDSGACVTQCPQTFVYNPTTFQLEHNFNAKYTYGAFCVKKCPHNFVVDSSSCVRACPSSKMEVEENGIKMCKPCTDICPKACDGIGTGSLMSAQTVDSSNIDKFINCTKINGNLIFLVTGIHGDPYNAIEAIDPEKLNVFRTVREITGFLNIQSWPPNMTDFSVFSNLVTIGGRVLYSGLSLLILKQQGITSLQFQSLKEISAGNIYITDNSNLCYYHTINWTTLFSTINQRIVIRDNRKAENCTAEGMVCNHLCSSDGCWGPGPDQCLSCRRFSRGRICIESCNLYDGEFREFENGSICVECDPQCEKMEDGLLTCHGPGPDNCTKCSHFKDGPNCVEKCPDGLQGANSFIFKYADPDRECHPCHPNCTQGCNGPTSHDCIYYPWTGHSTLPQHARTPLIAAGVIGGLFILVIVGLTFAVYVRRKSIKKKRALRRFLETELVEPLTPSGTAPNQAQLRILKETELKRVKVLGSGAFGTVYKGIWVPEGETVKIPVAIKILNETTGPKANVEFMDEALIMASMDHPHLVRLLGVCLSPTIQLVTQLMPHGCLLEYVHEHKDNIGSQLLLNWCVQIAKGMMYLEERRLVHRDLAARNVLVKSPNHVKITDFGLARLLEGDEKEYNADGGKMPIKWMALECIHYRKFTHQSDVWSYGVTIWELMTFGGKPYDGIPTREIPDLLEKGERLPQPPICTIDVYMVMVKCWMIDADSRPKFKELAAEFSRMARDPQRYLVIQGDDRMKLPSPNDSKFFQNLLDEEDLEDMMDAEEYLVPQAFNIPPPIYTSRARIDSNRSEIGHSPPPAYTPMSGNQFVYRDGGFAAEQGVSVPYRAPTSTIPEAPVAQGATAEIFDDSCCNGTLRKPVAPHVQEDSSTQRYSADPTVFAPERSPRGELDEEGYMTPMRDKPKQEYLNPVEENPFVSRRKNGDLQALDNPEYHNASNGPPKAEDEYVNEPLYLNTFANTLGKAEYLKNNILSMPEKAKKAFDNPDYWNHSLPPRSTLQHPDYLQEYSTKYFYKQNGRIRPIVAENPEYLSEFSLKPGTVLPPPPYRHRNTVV
Sequence of cSRC(h) (P12931 whole entry): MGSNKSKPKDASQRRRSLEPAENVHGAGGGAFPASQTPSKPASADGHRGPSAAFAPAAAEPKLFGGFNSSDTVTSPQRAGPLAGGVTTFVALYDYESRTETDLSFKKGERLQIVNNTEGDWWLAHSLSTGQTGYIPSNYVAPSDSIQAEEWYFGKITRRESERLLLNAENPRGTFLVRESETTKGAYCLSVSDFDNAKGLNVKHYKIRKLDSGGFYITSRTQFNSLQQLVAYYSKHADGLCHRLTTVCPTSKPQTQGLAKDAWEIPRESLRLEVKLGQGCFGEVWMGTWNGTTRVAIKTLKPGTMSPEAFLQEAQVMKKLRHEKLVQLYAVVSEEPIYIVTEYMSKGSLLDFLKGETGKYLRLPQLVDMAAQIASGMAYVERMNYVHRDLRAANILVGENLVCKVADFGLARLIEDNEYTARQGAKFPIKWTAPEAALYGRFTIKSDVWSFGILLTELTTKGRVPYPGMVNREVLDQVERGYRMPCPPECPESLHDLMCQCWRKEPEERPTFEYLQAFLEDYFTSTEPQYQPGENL
Sequence of HIPK1(h) (Q86Z02 whole entry): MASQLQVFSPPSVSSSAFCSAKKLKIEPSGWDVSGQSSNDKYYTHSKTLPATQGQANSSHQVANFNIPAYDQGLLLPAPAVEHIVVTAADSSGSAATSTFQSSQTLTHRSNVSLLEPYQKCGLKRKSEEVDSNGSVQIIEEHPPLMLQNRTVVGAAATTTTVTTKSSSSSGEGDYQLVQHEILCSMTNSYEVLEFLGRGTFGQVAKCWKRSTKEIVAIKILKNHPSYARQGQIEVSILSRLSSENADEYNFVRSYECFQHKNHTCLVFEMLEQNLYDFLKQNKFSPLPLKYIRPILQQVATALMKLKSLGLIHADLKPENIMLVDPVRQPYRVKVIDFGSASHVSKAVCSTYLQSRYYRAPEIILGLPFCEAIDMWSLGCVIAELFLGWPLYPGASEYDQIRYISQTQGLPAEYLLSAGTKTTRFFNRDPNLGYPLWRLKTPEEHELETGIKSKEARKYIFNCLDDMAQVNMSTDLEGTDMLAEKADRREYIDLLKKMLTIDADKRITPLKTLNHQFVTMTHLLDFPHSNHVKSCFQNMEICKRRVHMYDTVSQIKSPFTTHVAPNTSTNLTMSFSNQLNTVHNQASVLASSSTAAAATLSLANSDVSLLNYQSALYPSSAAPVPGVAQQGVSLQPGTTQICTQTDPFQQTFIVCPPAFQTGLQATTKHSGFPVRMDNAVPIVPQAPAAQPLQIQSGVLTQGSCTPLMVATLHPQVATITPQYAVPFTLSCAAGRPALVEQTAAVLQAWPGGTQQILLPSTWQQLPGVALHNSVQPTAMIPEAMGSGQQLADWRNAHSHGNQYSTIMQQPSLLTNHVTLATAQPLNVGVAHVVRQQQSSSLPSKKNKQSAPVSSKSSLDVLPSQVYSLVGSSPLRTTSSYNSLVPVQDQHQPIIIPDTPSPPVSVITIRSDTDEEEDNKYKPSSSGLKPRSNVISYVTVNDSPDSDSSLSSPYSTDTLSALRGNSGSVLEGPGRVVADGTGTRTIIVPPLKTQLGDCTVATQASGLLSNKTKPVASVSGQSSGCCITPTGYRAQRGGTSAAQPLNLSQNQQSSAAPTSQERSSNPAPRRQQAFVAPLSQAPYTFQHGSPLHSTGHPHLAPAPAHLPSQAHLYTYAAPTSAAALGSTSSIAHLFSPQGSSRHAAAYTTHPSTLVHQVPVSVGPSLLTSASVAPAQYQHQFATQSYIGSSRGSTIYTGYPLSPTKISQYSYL
Sequence of SRPK2(h) (P78362 whole entry): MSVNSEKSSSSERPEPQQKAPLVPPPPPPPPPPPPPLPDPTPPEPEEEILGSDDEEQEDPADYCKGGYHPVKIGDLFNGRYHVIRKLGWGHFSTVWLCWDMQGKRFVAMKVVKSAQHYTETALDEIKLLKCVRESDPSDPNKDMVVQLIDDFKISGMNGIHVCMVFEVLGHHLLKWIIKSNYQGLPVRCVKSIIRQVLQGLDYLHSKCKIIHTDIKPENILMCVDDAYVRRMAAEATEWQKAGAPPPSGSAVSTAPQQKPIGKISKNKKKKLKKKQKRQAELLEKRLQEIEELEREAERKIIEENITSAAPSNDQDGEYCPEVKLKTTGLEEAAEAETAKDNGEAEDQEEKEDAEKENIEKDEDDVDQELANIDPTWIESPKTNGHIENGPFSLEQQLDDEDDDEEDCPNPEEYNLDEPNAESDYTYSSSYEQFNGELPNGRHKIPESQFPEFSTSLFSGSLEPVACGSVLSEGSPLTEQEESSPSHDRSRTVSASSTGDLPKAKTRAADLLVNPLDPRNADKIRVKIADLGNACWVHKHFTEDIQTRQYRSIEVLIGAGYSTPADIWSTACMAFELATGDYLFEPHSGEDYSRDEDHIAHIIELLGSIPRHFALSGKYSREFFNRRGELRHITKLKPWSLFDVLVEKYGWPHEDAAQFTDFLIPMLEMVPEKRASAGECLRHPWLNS
Sequence of Pim-1(h) (P11309 whole entry): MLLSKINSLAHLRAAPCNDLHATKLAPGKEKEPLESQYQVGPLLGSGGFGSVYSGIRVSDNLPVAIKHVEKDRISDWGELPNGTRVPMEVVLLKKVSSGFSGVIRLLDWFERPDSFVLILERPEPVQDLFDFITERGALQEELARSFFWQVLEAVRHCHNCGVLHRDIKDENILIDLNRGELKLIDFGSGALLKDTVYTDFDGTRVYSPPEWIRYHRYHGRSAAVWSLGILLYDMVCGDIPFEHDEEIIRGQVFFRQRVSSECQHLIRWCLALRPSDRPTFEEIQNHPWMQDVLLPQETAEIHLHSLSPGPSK
T10 sequence (P42685 whole entry): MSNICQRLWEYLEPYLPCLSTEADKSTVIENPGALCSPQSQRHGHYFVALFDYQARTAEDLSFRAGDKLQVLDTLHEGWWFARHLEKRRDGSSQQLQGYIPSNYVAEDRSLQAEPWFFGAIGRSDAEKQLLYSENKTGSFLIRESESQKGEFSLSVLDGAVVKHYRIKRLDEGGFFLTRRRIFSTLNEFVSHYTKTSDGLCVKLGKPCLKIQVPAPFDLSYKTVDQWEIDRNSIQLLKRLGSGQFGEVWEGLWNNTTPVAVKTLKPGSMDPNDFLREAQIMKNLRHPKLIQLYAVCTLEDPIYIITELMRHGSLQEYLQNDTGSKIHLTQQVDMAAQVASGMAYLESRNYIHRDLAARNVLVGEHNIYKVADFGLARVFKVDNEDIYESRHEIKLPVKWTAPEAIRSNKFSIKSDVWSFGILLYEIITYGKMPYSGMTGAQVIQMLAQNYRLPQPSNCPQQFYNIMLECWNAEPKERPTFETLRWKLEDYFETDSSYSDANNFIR
Sequence of MST2(h) (Q13188 whole entry): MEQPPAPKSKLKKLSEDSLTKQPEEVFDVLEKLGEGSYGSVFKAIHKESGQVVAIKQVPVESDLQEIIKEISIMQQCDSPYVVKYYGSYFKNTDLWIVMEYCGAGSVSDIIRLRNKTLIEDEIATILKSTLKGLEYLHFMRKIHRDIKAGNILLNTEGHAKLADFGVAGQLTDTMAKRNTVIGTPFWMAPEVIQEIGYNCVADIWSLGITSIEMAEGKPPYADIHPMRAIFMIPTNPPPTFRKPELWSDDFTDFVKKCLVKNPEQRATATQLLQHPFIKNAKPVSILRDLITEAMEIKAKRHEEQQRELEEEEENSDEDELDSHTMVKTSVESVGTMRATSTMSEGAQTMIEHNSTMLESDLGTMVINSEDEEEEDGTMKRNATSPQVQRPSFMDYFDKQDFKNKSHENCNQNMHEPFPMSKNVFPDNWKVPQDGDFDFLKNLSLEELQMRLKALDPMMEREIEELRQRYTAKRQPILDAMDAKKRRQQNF

Cc1cc(Nc2cc(N3CCN(C)CC3)nc(Sc3ccc(NC(=O)C4CC4)cc3)n2)n[nH]1 [Compound E, Cyclopropane carboxylic acid {4-[4-(4-methyl-piperazin-1-yl)-6-(5-methyl-2H-pyrazol-3-ylamino)-pyrimidin-2-ylsulphanyl]-phenyl}-amide]
percentage of enzyme activity that remains (CDK2/cyclinA(h)): 99% | remaining activity at 0.2 µM (cKit(D816V)(h)): 89% | remaining activity at 4 µM (cKit(D816V)(h)): 79% | remaining activity at 0.2 µM (cSRC(h)): 87% | remaining activity at 4 µM (cSRC(h)): 25% | remaining activity at 0.2 µM (DYRK2(h)): 100% | remaining activity at 4 µM (DYRK2(h)): 110% | remaining activity at 4 µM (EphA7(h)): 78% | remaining activity at 0.2 µM (EphA8(h)): 92% | remaining activity at 0.2 µM (EphB4(h)): 91% | remaining activity at 4 µM (EphB4(h)): 11% | remaining activity at 4 µM (Fyn(h)): 4% | percentage of enzyme activity that remains (JNK3(h); 0.2 μM Compound E): 94% | percentage of enzyme activity that remains (JNK3(h); 4 μM Compound E): 69% | remaining activity at 0.2 µM (Pim-1(h)): 102% | remaining activity at 4 µM (Pim-1(h)): 103% | remaining activity at 0.2 µM (PKCε(h)): 98% | remaining activity at 4 µM (PKCε(h)): 96% | remaining activity at 0.2 µM (PTK5(h)): 97% | remaining activity at 4 µM (PTK5(h)): 54% | remaining activity at 0.2 µM (Pyk2(h)): 100% | remaining activity at 4 µM (Pyk2(h)): 59% | remaining activity at 0.2 µM (Fgr(h)): 71% | remaining activity at 4 µM (Fgr(h)): 12% | percentage of enzyme activity that remains (ITK(h)): 12% | remaining activity at 0.2 µM (KDR(h)): 87% | remaining activity at 4 µM (KDR(h)): 20% | percentage of enzyme activity that remains (SIK(h); 0.2 μM Compound E): 95% | percentage of enzyme activity that remains (SIK(h); 4 μM Compound E): 61% | remaining activity at 0.2 µM (MST2(h)): 92% | remaining activity at 4 µM (MST2(h)): 74% | percentage of enzyme activity that remains (MST3(h); 0.2 μM Compound E): 97% | percentage of enzyme activity that remains (MST3(h); 4 μM Compound E): 140% | remaining activity at 0.2 µM (TAK1(h)): 99% | remaining activity at 4 µM (TAK1(h)): 66% | remaining activity at 0.2 µM (DAPK1(h)): 107% | remaining activity at 4 µM (DAPK1(h)): 100% | remaining activity at 0.2 µM (EphA2(h)): 78% | remaining activity at 4 µM (EphA2(h)): 10% | percentage of enzyme activity that remains (EphB2(h); 0.2 μM Compound E): 121% | percentage of enzyme activity that remains (EphB2(h); 4 μM Compound E): 107% | remaining activity at 0.2 µM (ErbB4(h)): 53% | remaining activity at 4 µM (ErbB4(h)): 52% | remaining activity at 0.2 µM (HIPK1(h)): 100% | remaining activity at 4 µM (HIPK1(h)): 100% | remaining activity at 0.2 µM (HIPK2(h)): 107% | remaining activity at 4 µM (HIPK2(h)): 110% | remaining activity at 0.2 µM (MAPK1(h)): 94% | remaining activity at 4 µM (MAPK1(h)): 93% | remaining activity at 0.2 µM (SRPK2(h)): 122% | remaining activity at 4 µM (SRPK2(h)): 109% | remaining activity at 0.2 µM (IGF-1R(h)): 76% | remaining activity at 4 µM (IGF-1R(h)): 26% | remaining activity at 0.2 µM (PDGFRα(h)): 87%
